Laboratory results: ChEMBL document CHEMBL3885881, “DrugMatrix”

Species on record: Rattus norvegicus
Test: DrugMatrix - Regimen: Daily Repeat
Format: toxicity, organism-based, Sprague-Dawley
Parameters: regimen Daily Repeat, gender Male, age 6-8 weeks
Details: in vivo, sc, […], route mini-PUMP - SUBCUTANEOUS, dose 0.065 mg/Kg, dose level High, vehicle 100 % SALINE; for ABSOLUTE BASOPHIL / ABSOLUTE EOSINOPHIL / ABSOLUTE LYMPHOCYTE / ABSOLUTE MONOCYTE / ABSOLUTE SEGMENTED NEUTROPHIL / BASOPHIL / EOSINOPHIL / ERYTHROCYTE COUNT / HEMATOCRIT / HEMOGLOBIN / LEUKOCYTE COUNT / LYMPHOCYTE / MEAN CORPUSCULAR HEMOGLOBIN / MEAN CORPUSCULAR HEMOGLOBIN CONCENTRATION / MEAN CORPUSCULAR VOLUME / MONOCYTE / NEUTROPHIL / NUCLEATED RED BLOOD CELLS / PLATELET COUNT: tissue Blood; for ALANINE AMINOTRANSFERASE / ALBUMIN / ALKALINE PHOSPHATASE / ASPARTATE AMINOTRANSFERASE / BLOOD UREA NITROGEN / CARBON DIOXIDE / CHLORIDE / CHOLESTEROL / CREATININE / GLUCOSE / LACTATE DEHYDROGENASE / LIPASE / PHOSPHORUS / POTASSIUM / SODIUM / TOTAL BILIRUBIN / TOTAL PROTEIN / URIC ACID: tissue Plasma

C[C@]12CCC(=O)C=C1CC[C@@H]1[C@@H]2[C@@H](O)C[C@]2(C=O)[C@@H](C(=O)CO)CC[C@@H]12 [ALDOSTERONE]
ABSOLUTE BASOPHIL (72 h, time 3 day): 0 CELLS/uL
ABSOLUTE EOSINOPHIL (72 h, time 3 day): 0 CELLS/uL
ABSOLUTE LYMPHOCYTE (72 h, time 3 day): 11286 CELLS/uL
ABSOLUTE MONOCYTE (72 h, time 3 day): 180.67 CELLS/uL
ABSOLUTE SEGMENTED NEUTROPHIL (72 h, time 3 day): 1866.67 CELLS/uL
BASOPHIL (72 h, time 3 day): 0%
EOSINOPHIL (72 h, time 3 day): 0%
ERYTHROCYTE COUNT (72 h, time 3 day): 5.69 x10E6/uL
HEMATOCRIT (72 h, time 3 day): 34.17%
HEMOGLOBIN (72 h, time 3 day): 12.73 G/DL
LEUKOCYTE COUNT (72 h, time 3 day): 13.33 x10E3/uL
LYMPHOCYTE (72 h, time 3 day): 84.67%
MEAN CORPUSCULAR HEMOGLOBIN (72 h, time 3 day): 22.37 pg
MEAN CORPUSCULAR HEMOGLOBIN CONCENTRATION (72 h, time 3 day): 37.3 G/DL
MEAN CORPUSCULAR VOLUME (72 h, time 3 day): 60.03 fL
MONOCYTE (72 h, time 3 day): 1.33%
NEUTROPHIL (72 h, time 3 day): 14%
NUCLEATED RED BLOOD CELLS (72 h, time 3 day): 0.33 /100WBC
PLATELET COUNT (72 h, time 3 day): 1067.67 x10E3/uL
ALANINE AMINOTRANSFERASE (72 h, time 3 day): 52.33 u/L
ALBUMIN (72 h, time 3 day): 3.8 G/DL
ALKALINE PHOSPHATASE (72 h, time 3 day): 293.67 u/L
ASPARTATE AMINOTRANSFERASE (72 h, time 3 day): 90 u/L
BLOOD UREA NITROGEN (72 h, time 3 day): 15.67 mg/dL
CARBON DIOXIDE (72 h, time 3 day): 32 mmol/L
CHLORIDE (72 h, time 3 day): 100 MEQ/L
CHOLESTEROL (72 h, time 3 day): 66.33 mg/dL
CREATININE (72 h, time 3 day): 0.14 mg/dL
GLUCOSE (72 h, time 3 day): 146 mg/dL
LACTATE DEHYDROGENASE (72 h, time 3 day): 443 u/L
LIPASE (72 h, time 3 day): 9.33 u/L
PHOSPHORUS (72 h, time 3 day): 11.27 mg/dL
POTASSIUM (72 h, time 3 day): 5.07 MEQ/L
SODIUM (72 h, time 3 day): 146.93 MEQ/L
TOTAL BILIRUBIN (72 h, time 3 day): 0.2 mg/dL
TOTAL PROTEIN (72 h, time 3 day): 5.73 G/DL
URIC ACID (72 h, time 3 day): 1.5 mg/dL
ABSOLUTE BASOPHIL (120 h, time 5 day): 0 CELLS/uL
ABSOLUTE EOSINOPHIL (120 h, time 5 day): 69 CELLS/uL
ABSOLUTE LYMPHOCYTE (120 h, time 5 day): 17030 CELLS/uL
ABSOLUTE MONOCYTE (120 h, time 5 day): 489 CELLS/uL
ABSOLUTE SEGMENTED NEUTROPHIL (120 h, time 5 day): 1812 CELLS/uL
BASOPHIL (120 h, time 5 day): 0%
EOSINOPHIL (120 h, time 5 day): 0.33%
ERYTHROCYTE COUNT (120 h, time 5 day): 5.8 x10E6/uL
HEMATOCRIT (120 h, time 5 day): 34.77%
HEMOGLOBIN (120 h, time 5 day): 12.97 G/DL
LEUKOCYTE COUNT (120 h, time 5 day): 19.4 x10E3/uL
LYMPHOCYTE (120 h, time 5 day): 87.33%
MEAN CORPUSCULAR HEMOGLOBIN (120 h, time 5 day): 22.4 pg
MEAN CORPUSCULAR HEMOGLOBIN CONCENTRATION (120 h, time 5 day): 37.3 G/DL
MEAN CORPUSCULAR VOLUME (120 h, time 5 day): 60.03 fL
MONOCYTE (120 h, time 5 day): 2.67%
NEUTROPHIL (120 h, time 5 day): 9.67%
NUCLEATED RED BLOOD CELLS (120 h, time 5 day): 0 /100WBC
PLATELET COUNT (120 h, time 5 day): 1473 x10E3/uL
ALANINE AMINOTRANSFERASE (120 h, time 5 day): 47.67 u/L
ALBUMIN (120 h, time 5 day): 3.77 G/DL
ALKALINE PHOSPHATASE (120 h, time 5 day): 252 u/L
ASPARTATE AMINOTRANSFERASE (120 h, time 5 day): 83 u/L
BLOOD UREA NITROGEN (120 h, time 5 day): 11.33 mg/dL
CARBON DIOXIDE (120 h, time 5 day): 36.33 mmol/L
CHLORIDE (120 h, time 5 day): 96.67 MEQ/L
CHOLESTEROL (120 h, time 5 day): 64.33 mg/dL
CREATININE (120 h, time 5 day): 0.13 mg/dL
GLUCOSE (120 h, time 5 day): 142.67 mg/dL
LACTATE DEHYDROGENASE (120 h, time 5 day): 335 u/L
LIPASE (120 h, time 5 day): 9 u/L
PHOSPHORUS (120 h, time 5 day): 11.97 mg/dL
POTASSIUM (120 h, time 5 day): 5.4 MEQ/L
SODIUM (120 h, time 5 day): 147.3 MEQ/L
TOTAL BILIRUBIN (120 h, time 5 day): 0.17 mg/dL
TOTAL PROTEIN (120 h, time 5 day): 5.53 G/DL
URIC ACID (120 h, time 5 day): 1.93 mg/dL
ABSOLUTE BASOPHIL (time 14 day): 0 CELLS/uL
ABSOLUTE EOSINOPHIL (time 14 day): 65.4 CELLS/uL
ABSOLUTE LYMPHOCYTE (time 14 day): 13364.4 CELLS/uL
ABSOLUTE MONOCYTE (time 14 day): 314 CELLS/uL
ABSOLUTE SEGMENTED NEUTROPHIL (time 14 day): 2076.2 CELLS/uL
BASOPHIL (time 14 day): 0%
EOSINOPHIL (time 14 day): 0.6%
ERYTHROCYTE COUNT (time 14 day): 6.35 x10E6/uL
HEMATOCRIT (time 14 day): 37.42%
HEMOGLOBIN (time 14 day): 13.62 G/DL
LEUKOCYTE COUNT (time 14 day): 15.82 x10E3/uL
LYMPHOCYTE (time 14 day): 84%
MEAN CORPUSCULAR HEMOGLOBIN (time 14 day): 21.48 pg
MEAN CORPUSCULAR HEMOGLOBIN CONCENTRATION (time 14 day): 36.4 G/DL
MEAN CORPUSCULAR VOLUME (time 14 day): 59.08 fL
MONOCYTE (time 14 day): 2%
NEUTROPHIL (time 14 day): 13.4%
NUCLEATED RED BLOOD CELLS (time 14 day): 0 /100WBC
PLATELET COUNT (time 14 day): 1043.2 x10E3/uL
ALANINE AMINOTRANSFERASE (time 14 day): 55.8 u/L
ALBUMIN (time 14 day): 4.14 G/DL
ALKALINE PHOSPHATASE (time 14 day): 346.6 u/L
ASPARTATE AMINOTRANSFERASE (time 14 day): 86.8 u/L
BLOOD UREA NITROGEN (time 14 day): 12.2 mg/dL
CARBON DIOXIDE (time 14 day): 43 mmol/L
CHLORIDE (time 14 day): 94.2 MEQ/L
CHOLESTEROL (time 14 day): 64.6 mg/dL
CREATININE (time 14 day): 0.17 mg/dL
GLUCOSE (time 14 day): 150.2 mg/dL
LACTATE DEHYDROGENASE (time 14 day): 88.6 u/L
LIPASE (time 14 day): 9.2 u/L
PHOSPHORUS (time 14 day): 11.36 mg/dL
POTASSIUM (time 14 day): 4.4 MEQ/L
SODIUM (time 14 day): 147.78 MEQ/L
TOTAL BILIRUBIN (time 14 day): 0.14 mg/dL
TOTAL PROTEIN (time 14 day): 6.2 G/DL
URIC ACID (time 14 day): 1.72 mg/dL
